Among the targets are AAK1 (Homo sapiens, UniProt Q2M2I8); CLK3 (Homo sapiens, UniProt P49761); CAMK1D (Homo sapiens, UniProt Q8IU85).
Holding throughout (test): biochemical
Holding throughout (design): Thermal shift (DSF, SYPRO Orange) Tm shift of recombinant kinase domains at 10 uM compound

In the next test the target is T1, JNK3 (Homo sapiens, UniProt P53779).
T1 construct: gene MAPK10

Another test concerns the target T2, MST2 (Homo sapiens, UniProt Q13188).
T2 construct: gene STK3
T2 sequence (Q13188 1-491): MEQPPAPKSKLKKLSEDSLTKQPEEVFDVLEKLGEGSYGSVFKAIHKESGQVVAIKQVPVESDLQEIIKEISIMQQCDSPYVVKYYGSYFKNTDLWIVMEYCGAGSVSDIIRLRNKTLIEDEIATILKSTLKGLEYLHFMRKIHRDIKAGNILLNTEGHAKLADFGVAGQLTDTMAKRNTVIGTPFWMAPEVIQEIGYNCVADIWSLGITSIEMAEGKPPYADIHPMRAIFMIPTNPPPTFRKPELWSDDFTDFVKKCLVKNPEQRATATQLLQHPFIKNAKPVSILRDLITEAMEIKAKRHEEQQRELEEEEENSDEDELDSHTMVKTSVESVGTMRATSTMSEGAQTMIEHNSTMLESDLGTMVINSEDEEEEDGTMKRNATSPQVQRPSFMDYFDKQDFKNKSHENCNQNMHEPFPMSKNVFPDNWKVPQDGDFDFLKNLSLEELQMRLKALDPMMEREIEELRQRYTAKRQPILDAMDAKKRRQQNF

Another test addresses T3, CAMK4 (Homo sapiens, UniProt Q16566).
T3 sequence (Q16566 1-473): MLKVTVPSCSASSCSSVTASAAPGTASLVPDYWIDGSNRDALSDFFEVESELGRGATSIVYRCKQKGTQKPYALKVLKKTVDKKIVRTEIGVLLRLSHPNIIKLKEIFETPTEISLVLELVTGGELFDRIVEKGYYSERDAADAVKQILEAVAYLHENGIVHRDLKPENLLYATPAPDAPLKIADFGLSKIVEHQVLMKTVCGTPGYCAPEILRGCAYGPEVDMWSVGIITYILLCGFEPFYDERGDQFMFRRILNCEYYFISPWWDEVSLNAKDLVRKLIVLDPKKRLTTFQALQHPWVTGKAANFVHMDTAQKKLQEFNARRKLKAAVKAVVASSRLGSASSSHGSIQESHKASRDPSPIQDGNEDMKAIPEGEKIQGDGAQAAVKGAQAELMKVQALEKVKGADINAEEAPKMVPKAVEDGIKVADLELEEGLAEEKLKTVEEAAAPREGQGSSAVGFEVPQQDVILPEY

Another test addresses T4, Erk2 (Homo sapiens, UniProt P28482).
T4 construct: gene MAPK1

The target in the next test is T5, FECH (Homo sapiens, UniProt P22830).
T5 sequence (P22830 1-423): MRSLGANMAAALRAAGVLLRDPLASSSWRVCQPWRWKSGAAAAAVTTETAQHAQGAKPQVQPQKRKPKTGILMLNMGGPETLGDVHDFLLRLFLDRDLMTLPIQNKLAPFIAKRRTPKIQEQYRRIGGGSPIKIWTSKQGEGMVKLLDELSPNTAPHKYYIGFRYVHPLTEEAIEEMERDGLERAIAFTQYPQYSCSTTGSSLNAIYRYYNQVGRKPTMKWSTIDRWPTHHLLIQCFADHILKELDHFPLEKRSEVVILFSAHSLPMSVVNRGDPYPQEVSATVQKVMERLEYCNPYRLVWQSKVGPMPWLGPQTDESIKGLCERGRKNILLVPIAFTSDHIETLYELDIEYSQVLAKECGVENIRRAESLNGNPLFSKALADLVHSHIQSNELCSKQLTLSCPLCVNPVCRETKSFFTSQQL

A further test addresses T6, MST3 (Homo sapiens, UniProt Q9Y6E0).
T6 construct: gene STK24

The target of a further test is T7, CK1d (Homo sapiens, UniProt P48730).
T7 construct: gene CSNK1D

The target in the next test is T8, ULK3 (Homo sapiens, UniProt Q6PHR2).
T8 sequence (Q6PHR2 1-472): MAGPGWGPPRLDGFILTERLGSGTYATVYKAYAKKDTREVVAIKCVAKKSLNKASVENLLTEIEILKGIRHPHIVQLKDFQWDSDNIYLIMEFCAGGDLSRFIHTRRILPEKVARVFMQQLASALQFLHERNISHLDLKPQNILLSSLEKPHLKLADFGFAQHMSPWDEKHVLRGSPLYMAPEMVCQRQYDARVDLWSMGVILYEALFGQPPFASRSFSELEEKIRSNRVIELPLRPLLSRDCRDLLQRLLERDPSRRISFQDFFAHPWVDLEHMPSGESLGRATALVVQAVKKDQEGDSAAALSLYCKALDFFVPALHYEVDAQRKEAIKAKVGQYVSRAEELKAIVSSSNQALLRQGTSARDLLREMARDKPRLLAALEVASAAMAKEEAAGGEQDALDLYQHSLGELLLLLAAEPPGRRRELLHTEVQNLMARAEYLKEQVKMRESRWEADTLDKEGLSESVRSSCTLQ

Drawing on paper doi:10.1101/2023.12.04.569845, “Identification of 4-(6-((2-methoxyphenyl)amino)pyrazin-2-yl)benzoic acids as CSNK2A inhibitors with antiviral activity and improved selectivity over PIM3” (bioRxiv, 2023), this text covers ΔTm for 3 molecules.

Structures are written as SMILES. Like-named read-outs stand apart in the source and are kept apart here.

T4 sequence (P28482 whole entry): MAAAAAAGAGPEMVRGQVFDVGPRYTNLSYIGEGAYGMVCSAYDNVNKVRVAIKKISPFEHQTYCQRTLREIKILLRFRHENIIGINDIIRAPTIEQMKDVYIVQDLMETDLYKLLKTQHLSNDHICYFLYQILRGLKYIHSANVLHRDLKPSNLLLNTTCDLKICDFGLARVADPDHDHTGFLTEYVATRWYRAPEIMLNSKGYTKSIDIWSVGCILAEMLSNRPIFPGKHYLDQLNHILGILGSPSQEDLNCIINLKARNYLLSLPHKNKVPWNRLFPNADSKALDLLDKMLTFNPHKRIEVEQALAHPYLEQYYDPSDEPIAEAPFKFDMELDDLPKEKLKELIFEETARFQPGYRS
Chain of AAK1 (Q2M2I8 whole entry): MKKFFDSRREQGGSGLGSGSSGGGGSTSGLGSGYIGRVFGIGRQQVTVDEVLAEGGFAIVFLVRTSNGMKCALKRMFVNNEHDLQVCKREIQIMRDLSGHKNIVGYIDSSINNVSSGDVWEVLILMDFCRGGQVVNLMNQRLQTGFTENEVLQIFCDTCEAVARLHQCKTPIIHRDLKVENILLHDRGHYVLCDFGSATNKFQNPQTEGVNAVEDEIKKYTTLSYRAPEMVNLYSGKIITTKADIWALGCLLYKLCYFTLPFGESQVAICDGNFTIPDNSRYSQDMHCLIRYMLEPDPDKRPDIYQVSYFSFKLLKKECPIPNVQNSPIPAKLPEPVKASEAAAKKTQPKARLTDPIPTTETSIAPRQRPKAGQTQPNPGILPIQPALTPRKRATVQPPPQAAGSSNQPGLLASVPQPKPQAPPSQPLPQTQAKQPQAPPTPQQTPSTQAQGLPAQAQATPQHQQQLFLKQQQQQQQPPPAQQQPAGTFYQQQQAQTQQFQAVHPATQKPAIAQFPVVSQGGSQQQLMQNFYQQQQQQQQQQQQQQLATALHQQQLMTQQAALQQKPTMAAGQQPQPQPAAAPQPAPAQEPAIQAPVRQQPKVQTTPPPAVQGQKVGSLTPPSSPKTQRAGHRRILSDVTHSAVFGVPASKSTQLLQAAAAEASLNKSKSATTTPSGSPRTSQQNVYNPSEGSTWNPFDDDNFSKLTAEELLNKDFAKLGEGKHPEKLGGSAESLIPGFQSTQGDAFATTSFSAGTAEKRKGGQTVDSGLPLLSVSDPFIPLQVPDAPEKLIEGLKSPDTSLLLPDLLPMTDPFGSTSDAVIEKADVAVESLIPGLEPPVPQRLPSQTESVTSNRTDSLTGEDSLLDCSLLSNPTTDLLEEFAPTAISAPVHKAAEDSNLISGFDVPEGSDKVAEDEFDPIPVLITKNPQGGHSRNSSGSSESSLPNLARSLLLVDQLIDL
T6 sequence (Q9Y6E0 whole entry): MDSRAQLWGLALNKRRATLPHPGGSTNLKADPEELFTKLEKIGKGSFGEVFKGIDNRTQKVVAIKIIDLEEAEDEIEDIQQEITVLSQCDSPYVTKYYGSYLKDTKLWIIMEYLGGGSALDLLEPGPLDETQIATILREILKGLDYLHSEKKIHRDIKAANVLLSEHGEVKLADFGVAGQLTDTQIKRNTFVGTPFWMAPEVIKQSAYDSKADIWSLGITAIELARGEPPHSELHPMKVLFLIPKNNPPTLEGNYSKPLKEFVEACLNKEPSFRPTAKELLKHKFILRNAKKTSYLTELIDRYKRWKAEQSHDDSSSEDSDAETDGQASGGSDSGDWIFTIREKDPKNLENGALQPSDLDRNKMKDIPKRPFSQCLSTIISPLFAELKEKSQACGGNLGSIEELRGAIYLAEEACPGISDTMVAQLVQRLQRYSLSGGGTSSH
Chain of CAMK1D (Q8IU85 whole entry): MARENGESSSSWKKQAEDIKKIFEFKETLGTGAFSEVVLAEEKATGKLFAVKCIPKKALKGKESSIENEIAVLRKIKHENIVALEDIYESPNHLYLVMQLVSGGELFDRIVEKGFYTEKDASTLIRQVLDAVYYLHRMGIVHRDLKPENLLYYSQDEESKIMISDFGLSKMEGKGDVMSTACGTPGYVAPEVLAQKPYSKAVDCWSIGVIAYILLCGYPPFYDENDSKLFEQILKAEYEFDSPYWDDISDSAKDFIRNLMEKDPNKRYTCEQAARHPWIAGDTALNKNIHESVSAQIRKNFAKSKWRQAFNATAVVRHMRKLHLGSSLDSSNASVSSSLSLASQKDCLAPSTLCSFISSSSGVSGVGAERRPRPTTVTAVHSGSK
T1 sequence (P53779 whole entry): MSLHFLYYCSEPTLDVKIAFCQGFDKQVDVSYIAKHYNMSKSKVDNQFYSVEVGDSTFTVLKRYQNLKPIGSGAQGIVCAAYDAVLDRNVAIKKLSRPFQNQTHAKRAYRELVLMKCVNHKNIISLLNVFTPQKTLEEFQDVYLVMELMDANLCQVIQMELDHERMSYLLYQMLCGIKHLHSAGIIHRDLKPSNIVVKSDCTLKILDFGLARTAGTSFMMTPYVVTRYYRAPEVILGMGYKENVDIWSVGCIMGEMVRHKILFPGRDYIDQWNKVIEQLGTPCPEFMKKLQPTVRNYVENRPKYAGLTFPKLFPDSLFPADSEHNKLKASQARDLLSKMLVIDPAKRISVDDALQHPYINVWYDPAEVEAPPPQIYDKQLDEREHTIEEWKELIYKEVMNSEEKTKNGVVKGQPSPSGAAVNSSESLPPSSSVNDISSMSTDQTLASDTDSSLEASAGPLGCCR
Chain of CLK3 (P49761 whole entry): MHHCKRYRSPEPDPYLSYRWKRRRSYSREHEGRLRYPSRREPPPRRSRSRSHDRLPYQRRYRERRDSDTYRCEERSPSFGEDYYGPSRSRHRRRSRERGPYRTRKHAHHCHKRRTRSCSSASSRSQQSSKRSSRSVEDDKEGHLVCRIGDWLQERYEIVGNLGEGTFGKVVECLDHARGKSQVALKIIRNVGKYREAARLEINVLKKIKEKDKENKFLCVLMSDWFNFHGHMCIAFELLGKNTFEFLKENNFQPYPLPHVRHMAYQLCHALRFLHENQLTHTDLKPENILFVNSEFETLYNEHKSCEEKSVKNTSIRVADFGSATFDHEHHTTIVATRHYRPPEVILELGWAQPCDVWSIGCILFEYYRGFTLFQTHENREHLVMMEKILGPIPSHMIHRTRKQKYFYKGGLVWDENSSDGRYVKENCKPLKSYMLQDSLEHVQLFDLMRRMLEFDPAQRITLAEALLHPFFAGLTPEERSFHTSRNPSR
T7 sequence (P48730 whole entry): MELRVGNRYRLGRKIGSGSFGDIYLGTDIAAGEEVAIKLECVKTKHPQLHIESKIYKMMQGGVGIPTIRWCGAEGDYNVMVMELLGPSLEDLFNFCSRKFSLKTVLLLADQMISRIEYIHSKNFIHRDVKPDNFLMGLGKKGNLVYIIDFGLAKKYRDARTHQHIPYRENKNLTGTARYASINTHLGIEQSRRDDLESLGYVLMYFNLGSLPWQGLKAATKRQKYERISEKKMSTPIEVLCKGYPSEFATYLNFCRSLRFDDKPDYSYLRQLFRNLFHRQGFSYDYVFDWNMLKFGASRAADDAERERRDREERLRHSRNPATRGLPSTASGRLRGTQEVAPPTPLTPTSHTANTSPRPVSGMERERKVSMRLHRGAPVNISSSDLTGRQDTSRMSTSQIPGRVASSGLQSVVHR

Turning to `COc1ccc(OC(C)C)cc1Nc1cncc(-c2ccc(C(=O)O)cc2)n1` [7c], the ΔTm at 10 µM on JNK3 (read-out: 7c) is 1 °C; at MST2 (read-out: 7c), 2 °C; at CAMK4 (read-out: 7c) it was -1 °C; at Erk2 (read-out: 7c) it was 0 °C; on FECH (read-out: 7c), 0 °C; at MST3 (read-out: 7c), -3 °C. In addition, the ΔTm at 10 µM at AAK1 (read-out: 7c) was determined as 5 °C; on CLK3 (read-out: 7c) it was 7 °C; on CK1d (read-out: 7c) it was 2 °C; on CAMK1D (read-out: 7c), 0 °C; at ULK3 (read-out: 7c), 3 °C.

Consider `CC(C)Oc1ccc2ccn(-c3cncc(-c4ccc(C(=O)O)cc4)n3)c2c1` [6c], for which the ΔTm at 10 µM at JNK3 (read-out: 6c) was 3 °C; at MST2 (read-out: 6c), 3 °C; on CAMK4 (read-out: 6c), 0 °C; on Erk2 (read-out: 6c), 0 °C; at FECH (read-out: 6c), -3 °C; on MST3 (read-out: 6c) it was -3 °C. The ΔTm at 10 µM was 6 °C at AAK1 (read-out: 6c); 8 °C on CLK3 (read-out: 6c); 3 °C on CK1d (read-out: 6c); 0 °C at CAMK1D (read-out: 6c); 5 °C on ULK3 (read-out: 6c).

As for `CC(C)Nc1ccc2cnn(-c3cncc(-c4ccc(C(=O)O)cc4)n3)c2c1` [compound 2, 2], the ΔTm at 10 µM stood at 6 °C at JNK3 (read-out: 2); 4 °C at MST2 (read-out: 2); 1 °C on CAMK4 (read-out: 2); 0 °C at Erk2 (read-out: 2); 0 °C on FECH (read-out: 2); 1 °C on MST3 (read-out: 2). In addition, the ΔTm at 10 µM stood at 7 °C on AAK1 (read-out: 2); 8 °C at CLK3 (read-out: 2); 3 °C on CK1d (read-out: 2); 2 °C at CAMK1D (read-out: 2); 7 °C at ULK3 (read-out: 2).
